≈ marks a conversion by molar mass, not a printed value.
Tests used:
Escherichia coli [1] = assay: Antimicrobial activity against Escherichia coli TOP10 harboring beta-lactamase DIM-1 by agar dilution method; assay type: functional
[2] = target: T1, Metallo-beta-lactamase (Pseudomonas stutzeri) (UniProt D5JGF6); assay: Ratio of Kcat to Km for Pseudomonas stutzeri beta-lactamase DIM-1by UV-spectrophotometry; set-up: unit not given here; conditions: Stutzerimonas stutzeri
T1 sequence (whole entry): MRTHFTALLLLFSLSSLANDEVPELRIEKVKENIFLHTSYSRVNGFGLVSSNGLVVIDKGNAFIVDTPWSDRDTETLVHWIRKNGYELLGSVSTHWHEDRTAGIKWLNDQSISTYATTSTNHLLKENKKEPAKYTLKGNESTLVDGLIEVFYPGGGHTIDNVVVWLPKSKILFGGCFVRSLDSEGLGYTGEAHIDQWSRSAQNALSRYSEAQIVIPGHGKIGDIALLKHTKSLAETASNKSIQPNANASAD

Stutzerimonas stutzeri [3] = assay: Antimicrobial activity against Pseudomonas stutzeri clinical isolate expressing beta-lactamase DIM-1 by agar dilution method; assay type: functional
Escherichia coli [4] = assay: Antimicrobial activity against Escherichia coli TOP10 by agar dilution method; assay type: functional
Escherichia coli [5] = assay: Antimicrobial activity against Escherichia coli TOP10 harboring beta-lactamase DIM-1 by agar dilution method in presence of beta-lactam inhibitor Tazobactam; assay type: functional
Escherichia coli [6] = assay: Antimicrobial activity against Escherichia coli TOP10 by agar dilution method in presence of beta-lactam inhibitor Tazobactam; assay type: functional
Stutzerimonas stutzeri [7] = assay: Antimicrobial activity against Pseudomonas stutzeri clinical isolate expressing beta-lactamase DIM-1 by agar dilution method in presence of beta-lactam inhibitor Tazobactam; assay type: functional
Stutzerimonas stutzeri [8] = assay: Antimicrobial activity against Pseudomonas stutzeri clinical isolate expressing beta-lactamase DIM-1 by agar dilution method in presence of beta-lactam inhibitor clavulanic acid; assay type: functional
Escherichia coli [9] = assay: Antimicrobial activity against Escherichia coli TOP10 by agar dilution method in presence of beta-lactam inhibitor clavulanic acid; assay type: functional
Escherichia coli [10] = assay: Antimicrobial activity against Escherichia coli TOP10 harboring beta-lactamase DIM-1 by agar dilution method in presence of beta-lactam inhibitor clavulanic acid; assay type: functional
[11] = substrate: C[C@@H](O)[C@H]1C(=O)N2C(C(=O)O)=C(S[C@@H]3CN[C@H](C(=O)N(C)C)C3)[C@H](C)[C@H]12; assay: (§1) Activity of Pseudomonas stutzeri beta-lactamase DIM-1 by UV-spectrophotometry; conditions: Stutzerimonas stutzeri
[12] = substrate: CO/N=C(\C(=O)N[C@@H]1C(=O)N2C(C(=O)[O-])=C(C[N+]3(C)CCCC3)CS[C@H]12)c1csc(N)n1; assay: as §1; conditions: Stutzerimonas stutzeri
[13] = substrate: CC(=O)OCC1=C(C(=O)O)N2C(=O)[C@@H](NC(=O)Cc3cccs3)[C@H]2SC1; assay: as §1; conditions: Stutzerimonas stutzeri
[14] = substrate: CO[C@@]1(NC(=O)Cc2cccs2)C(=O)N2C(C(=O)O)=C(COC(N)=O)CS[C@@H]21; assay: as §1; conditions: Stutzerimonas stutzeri
[15] = substrate: C[C@@H](O)[C@H]1C(=O)N2C(C(=O)O)=C(SCCNC=N)C[C@H]12; assay: as §1; conditions: Stutzerimonas stutzeri
[16] = substrate: CC(C)(O/N=C(\C(=O)N[C@@H]1C(=O)N2C(C(=O)[O-])=C(C[n+]3ccccc3)CS[C@H]12)c1csc(N)n1)C(=O)O; assay: as §1; conditions: Stutzerimonas stutzeri
[17] = substrate: C[C@H]1[C@H](NC(=O)/C(=N\OC(C)(C)C(=O)O)c2csc(N)n2)C(=O)N1S(=O)(=O)O; assay: as §1; conditions: Stutzerimonas stutzeri
[18] = substrate: CC1(C)S[C@@H]2[C@H](NC(=O)[C@H](C(=O)O)c3ccsc3)C(=O)N2[C@H]1C(=O)O; assay: as §1; conditions: Stutzerimonas stutzeri
[19] = substrate: CO/N=C(\C(=O)N[C@@H]1C(=O)N2C(C(=O)O)=C(COC(C)=O)CS[C@H]12)c1csc(N)n1; assay: as §1; conditions: Stutzerimonas stutzeri
[20] = substrate: CC1(C)S[C@@H]2[C@H](NC(=O)Cc3ccccc3)C(=O)N2[C@H]1C(=O)O; assay: as §1; conditions: Stutzerimonas stutzeri
[21] = substrate: CC1(C)S[C@@H]2[C@H](NC(=O)[C@H](N)c3ccccc3)C(=O)N2[C@H]1C(=O)O; assay: as §1; conditions: Stutzerimonas stutzeri

C[C@H]1[C@H](NC(=O)/C(=N\OC(C)(C)C(=O)O)c2csc(N)n2)C(=O)N1S(=O)(=O)O [AZTREONAM]
MIC (Escherichia coli [1]): 0.25 µg/mL (≈ 0.574 µM)

C[C@@H](O)[C@H]1C(=O)N2C(C(=O)O)=C(S[C@@H]3CN[C@H](C(=O)N(C)C)C3)[C@H](C)[C@H]12
Ratio [2]: 200

CO/N=C(\C(=O)N[C@@H]1C(=O)N2C(C(=O)[O-])=C(C[N+]3(C)CCCC3)CS[C@H]12)c1csc(N)n1
MIC (Escherichia coli [1]): 1 µg/mL (≈ 2.08 µM)

CC1(C)S[C@@H]2[C@H](NC(=O)Cc3ccccc3)C(=O)N2[C@H]1C(=O)O
Ratio [2]: 2800

CC(C)(O/N=C(\C(=O)N[C@@H]1C(=O)N2C(C(=O)[O-])=C(C[n+]3ccccc3)CS[C@H]12)c1csc(N)n1)C(=O)O [CEFTAZIDIME]
MIC (Escherichia coli [1]): 256 µg/mL (≈ 468 µM) | MIC (Stutzerimonas stutzeri [3]): 8 µg/mL (≈ 14.6 µM) | MIC (Escherichia coli [4]): 0.06 µg/mL (≈ 0.11 µM) | Ratio [2]: 60

CO[C@@]1(NC(=O)Cc2cccs2)C(=O)N2C(C(=O)O)=C(COC(N)=O)CS[C@@H]21 [CEFOXITIN]
MIC (Escherichia coli [1]): 512 µg/mL (≈ 1200 µM) | MIC (Stutzerimonas stutzeri [3]): 512 µg/mL (≈ 1200 µM) | MIC (Escherichia coli [4]): 4 µg/mL (≈ 9.36 µM) | Ratio [2]: 400

CCN1CCN(C(=O)N[C@@H](C(=O)N[C@@H]2C(=O)N3[C@@H]2SC(C)(C)[C@@H]3C(=O)O)c2ccccc2)C(=O)C1=O [PIPERACILLIN]
MIC (Escherichia coli [5]): 512 µg/mL | MIC (Escherichia coli [1]): > 512 µg/mL | MIC (Escherichia coli [6]): 1 µg/mL | MIC (Stutzerimonas stutzeri [3]): > 512 µg/mL | MIC (Escherichia coli [4]): 1 µg/mL (≈ 1.93 µM) | MIC (Stutzerimonas stutzeri [7]): 512 µg/mL

CC(=O)OCC1=C(C(=O)O)N2C(=O)[C@@H](NC(=O)Cc3cccs3)[C@H]2SC1
Ratio [2]: 5000

CC1(C)S[C@@H]2[C@H](NC(=O)[C@H](N)c3ccc(O)cc3)C(=O)N2[C@H]1C(=O)O [AMOXICILLIN]
MIC (Stutzerimonas stutzeri [8]): > 512 µg/mL | MIC (Escherichia coli [1]): > 512 µg/mL | MIC (Stutzerimonas stutzeri [3]): > 512 µg/mL | MIC (Escherichia coli [4]): 4 µg/mL (≈ 10.9 µM) | MIC (Escherichia coli [9]): 4 µg/mL | MIC (Escherichia coli [10]): > 512 µg/mL

C[C@@H](O)[C@H]1C(=O)N2C(C(=O)O)=C(SCCNC=N)C[C@H]12 [IMIPENEM ANHYDROUS]
MIC (Escherichia coli [1]): 2 µg/mL (≈ 6.68 µM) | MIC (Stutzerimonas stutzeri [3]): 64 µg/mL (≈ 214 µM) | Ratio [2]: 440

CO/N=C(\C(=O)N[C@@H]1C(=O)N2C(C(=O)O)=C(COC(C)=O)CS[C@H]12)c1csc(N)n1 [CEFOTAXIME]
MIC (Escherichia coli [1]): 256 µg/mL (≈ 562 µM) | MIC (Stutzerimonas stutzeri [3]): 512 µg/mL (≈ 1120 µM) | MIC (Escherichia coli [4]): 0.12 µg/mL (≈ 0.263 µM) | Ratio [2]: 3000

CC1(C)S[C@@H]2[C@H](NC(=O)[C@H](C(=O)O)c3ccsc3)C(=O)N2[C@H]1C(=O)O [TICARCILLIN]
MIC (Stutzerimonas stutzeri [8]): > 512 µg/mL | MIC (Escherichia coli [1]): > 512 µg/mL | MIC (Stutzerimonas stutzeri [3]): > 512 µg/mL | MIC (Escherichia coli [4]): 4 µg/mL (≈ 10.4 µM) | MIC (Escherichia coli [9]): 4 µg/mL | MIC (Escherichia coli [10]): > 512 µg/mL | Ratio [2]: 15000

CC1(C)S[C@@H]2[C@H](NC(=O)[C@H](N)c3ccccc3)C(=O)N2[C@H]1C(=O)O
Ratio [2]: 180

B1: Metallo-beta-lactamase (Pseudomonas stutzeri), D5JGF6 (protein)
chain: T1 sequence (whole entry)
Km [11]: 20 µM | kcat [11]: 4 s⁻¹ | Km [12]: 220 µM | kcat [12]: 3 s⁻¹ | Km [13]: 6 µM | kcat [13]: 30 s⁻¹ | Km [14]: 20 µM | kcat [14]: 8 s⁻¹ | Km [15]: 80 µM | kcat [15]: 35 s⁻¹ | Km [16]: 50 µM | kcat [16]: 3 s⁻¹ | kcat [17]: < 0.01 s⁻¹ | Km [18]: 80 µM | kcat [18]: 250 s⁻¹ | Km [19]: 3.5 µM | kcat [19]: 10 s⁻¹ | Km [20]: 90 µM | kcat [20]: 250 s⁻¹ | Km [21]: 110 µM | kcat [21]: 20 s⁻¹
